Measured values as given in EP0900207B1, “PYRAZINONE THROMBIN INHIBITORS” (MERCK & CO., INC., priority 1996, dated 1997).

Tested on: Male Sprague-Dawley rats
Assay: Rat ferric chloride assay of thrombotic occlusion of the carotid artery
Format: in vivo
Details: continuous intravenous infusion 10 µg/kg/min
Method: Studies of 3-(2-Phenylethylamino)-6-methyl-1-(2-amino-6-methyl-5-methylenecarboxamidomethylpyridinyl)-2-pyridinone using the following rat ferric chloride assay substantially as described in Thrombosis Research, No. 60, page 269(1990) by Kurtz et al were used to determine in vivo activity of the thrombin inhibitors of the invention. Male Sprague-Dawley rats (body weights 200-350 grams) were anesthetized with dial-urethane solution (0.1 ml/100 gm body weight i.p.), and a lateral tail vein was cannulated with a 23 gauge needle connected to a 12 inch length of PE50 tubing. The tubing was attached to a 3-way valve by a tubing adapter. Saline (control) or test compound, as appropriate, was administered via the tail vein catheter. A tracheostomy was performed with a 0.75 inch length of PE205 tubing. The right carotid artery is exposed and a 1.3 mm diameter Doppler flow probe was placed on the vessel. Body temperature was maintained at 37°C using a heat lamp.
6 rats were randomized to continuous intravenous infusions of saline or test compound administered via the tail vein. Test compound was administered at a rate of 10 µg/kg/min. Treatment infusions were initiated 60 min before the placement of a 3 mm square piece of Whatman No. 1 filter paper saturated with 35% FeCl3 onto the exposed carotid artery distal to the flow probe. […]

Substance: 3-(2-Phenylethylamino)-6-methyl-1-(2-amino-6-methyl-5-methylenecarboxamidomethylpyridinyl)-2-pyridinone [Example LXXXII]
- rats showing evidence of thrombotic occlusion (observed up to 90 minutes after application of FeCl3): None
- efficacy against thrombotic occlusion (started 60 min before 35% FeCl3 on carotid artery): fully efficacious
